Earlier results in US20100012891A1, “Tooth Whitening Compositions and Methods” (priority 2008, published 2010).

Conditions: at six months, 16%-18% carbamide peroxide (Brunton et al., 2004)

Structure (SMILES): NC(N)=O.OO [carbamide peroxide]
- patients with rebound: 40%
